SMILES strings stand for the structures.

Results on 13 molecules are retold here after ChEMBL document CHEMBL1133052, “Androsterone 3beta-substituted derivatives as inhibitors of type 3 17beta-hydroxysteroid dehydrogenase” (Bioorg Med Chem Lett, 2000).

Type in all cases: cell-based
Assay [1] has as its target T1, 17-beta-hydroxysteroid dehydrogenase type 3 (Homo sapiens) (UniProt P37058).
T1 sequence (whole entry): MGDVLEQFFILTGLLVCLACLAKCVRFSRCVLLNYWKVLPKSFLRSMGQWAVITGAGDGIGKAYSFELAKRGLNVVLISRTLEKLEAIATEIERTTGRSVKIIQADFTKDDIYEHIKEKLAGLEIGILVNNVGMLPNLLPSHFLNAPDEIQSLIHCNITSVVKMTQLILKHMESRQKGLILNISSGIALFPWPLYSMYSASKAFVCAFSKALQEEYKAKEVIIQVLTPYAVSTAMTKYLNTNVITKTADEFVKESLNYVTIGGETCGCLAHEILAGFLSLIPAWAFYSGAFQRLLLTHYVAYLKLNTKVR
Kind of assay: Percent inhibition against type-3 17-beta-HSD expressed in HEK293 cells at 0.3 uM.

For assay [2], the target named is T1, 17-beta-hydroxysteroid dehydrogenase type 3 (Homo sapiens). Kind of assay: Percent inhibition against type-3 17-beta-HSD expressed in HEK293 cells at 3 uM.
For assay [3], the target named is T2, 17-beta-hydroxysteroid dehydrogenase type 3 (Homo sapiens, UniProt P37058).
T2 sequence (P37058 whole entry): T1 sequence (whole entry)
As to the kind of experiment: Inhibitory concentration against type-3 17-beta-HSD expressed in HEK293 cells.

As for `CCC[C@@]1(O)CC[C@@]2(C)C(CC[C@@H]3[C@@H]2CC[C@]2(C)C(=O)CC[C@@H]32)C1` (stereo partly drawn), the inhibition stood at 89% in assay [1] and 94% in assay [2]. The molecule also gave an IC50 in assay [3] of 0.067 µM.
Regarding `C[C@]12CC[C@](O)(c3ccccc3)CC1CC[C@@H]1[C@@H]2CC[C@]2(C)C(=O)CC[C@@H]12` (stereo partly drawn), the inhibition in assay [1] was 88%; in assay [2] it was 95%. The half-maximal inhibitory concentration (IC50) in assay [3] amounted to 0.081 µM.
The matching figures for `C[C@]12CC[C@](O)(C3CCCCC3)CC1CC[C@@H]1[C@@H]2CC[C@]2(C)C(=O)CC[C@@H]12` (stereo partly drawn): 88%, 93% and 0.097 µM.
In the case of `CCCCCCCC[C@@]1(O)CC[C@@]2(C)C(CC[C@@H]3[C@@H]2CC[C@]2(C)C(=O)CC[C@@H]32)C1` (stereo partly drawn), the results for the inhibition in assay [1] and in assay [2] were 88% and 92%, respectively. The same molecule showed an IC50 in assay [3] of 0.147 µM.
Turning to `C[C@]12CCC(=O)C=C1CC[C@@H]1[C@@H]2CC[C@]2(C)C(=O)CC[C@@H]12` [ANDROSTENEDIONE], the inhibition is 24% in assay [1] and 78% in assay [2]. In assay [3], the midpoint of inhibition, the IC50, lay at 0.758 µM.
Consider `CCC(C)[C@@]1(O)CC[C@@]2(C)C(CC[C@@H]3[C@@H]2CC[C@]2(C)C(=O)CC[C@@H]32)C1` (stereo partly drawn), for which the inhibition in assay [1] was determined as 85%; in assay [2] it was 90%. Moreover, the midpoint of inhibition in assay [3], the IC50, lay at 0.073 µM.
Regarding `C[C@]12CC[C@](O)(Cc3ccccc3)CC1CC[C@@H]1[C@@H]2CC[C@]2(C)C(=O)CC[C@@H]12` (stereo partly drawn), the inhibition in assay [1] was found to be 90%; in assay [2] it was 94%. In assay [3], this molecule had an IC50 of 0.057 µM.
The matching figures for `C[C@]12CC[C@](O)(CCc3ccccc3)CC1CC[C@@H]1[C@@H]2CC[C@]2(C)C(=O)CC[C@@H]12` (stereo partly drawn): 93%, 93% and 0.099 µM.
For the molecule `C[C@@]1(O)CC[C@@]2(C)C(CC[C@@H]3[C@@H]2CC[C@]2(C)C(=O)CC[C@@H]32)C1` (stereo partly drawn), the inhibition in assay [1] is 72%; in assay [2], 93%.
For `C[C@]12CC[C@](O)(CC3CCCCC3)CC1CC[C@@H]1[C@@H]2CC[C@]2(C)C(=O)CC[C@@H]12` (stereo partly drawn), the inhibition in assay [1] was 93%; in assay [2], 95%. The same molecule yielded an IC50 in assay [3] of 0.087 µM.
Taken in the same sequence, the figures for `C[C@]12CC[C@@H](O)C[C@H]1CC[C@@H]1[C@@H]2CC[C@]2(C)C(=O)CC[C@@H]12` [ETIOCHOLANOLONE] were 50%, 88% and 0.33 µM.
The matching figures for `C[C@]12CC[C@](O)(CCC3CCCCC3)CC1CC[C@@H]1[C@@H]2CC[C@]2(C)C(=O)CC[C@@H]12` (stereo partly drawn): 92%, 93% and 0.06 µM.
Taken in the same sequence, the figures for `CCCCCC[C@@]1(O)CC[C@@]2(C)C(CC[C@@H]3[C@@H]2CC[C@]2(C)C(=O)CC[C@@H]32)C1` (stereo partly drawn) were 93%, 96% and 0.1 µM.
